# Source: US11780826B2 (Amgen Inc., priority 2017, dated 2023)
# Test system: Bovine cardiac myofibrils
# Test: In vitro model of dose-dependent myofibril ATPase modulation (AC1.4, pyruvate kinase/lactate dehydrogenase-coupled ATPase assay at pCa25)
# Type: biochemical
# Conditions: concentration at which ATPase activity was 1.4-fold higher than the bottom of the dose curve, mean of a minimum of two independent tests
# Outline: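 Absorbance at 340 nm tracked ATP hydrolysis through pyruvate kinase/lactate dehydrogenase coupling (0.5 mM NADH, 1.5 mM PEP). Myofibrils from detergent-homogenized bovine heart, 1 mM ATP, pH 6.80, EGTA/CaCl2 buffering. Dose-response curves fitted with a four-parameter Hill equation.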
row,Structure (SMILES),AC1.4 [µM]
1,"CC(C)(C)OC1CN(S(=O)(=O)N2CCC[C@H](C(=O)N3CCC[C@@H]3C(=O)NCc3ccc(C(F)(F)F)cc3)C2)C1 [Example 734, 1-(((3S)-1-((3-tert-butoxy-1-azetidinyl)sulfonyl)-3-piperidinyl)carbonyl)-N-(4-(trifluoromethyl)benzyl)-D-prolinamide]",6.866
2,"CCCCCC1CN(S(=O)(=O)N2CCC[C@H](C(=O)N3CCC[C@@H]3C(=O)NCc3ccc(C(F)(F)F)cc3)C2)C1 [Example 735, 1-(((3S)-1-((3-pentyl-1-azetidinyl)sulfonyl)-3-piperidinyl)carbonyl)-N-(4-(trifluoromethyl)benzyl)-D-prolinamide]",7.0265
3,"Cc1cc(C(=O)N2[C@@H](C(=O)N[C@@H](c3cc(F)c(Cl)cc3F)C3CC3)C[C@H]3C[C@H]32)ccn1 [Example 736, (1R,3R,5R)-N-((R)-(4-chloro-2,5-difluorophenyl)(cyclopropyl)methyl)-2-((2-methyl-4-pyridinyl)carbonyl)-2-azabicyclo[3.1.0]hexane-3-carboxamide]",7.041
4,"O=C(N[C@@H](c1ccc(C(F)(F)F)cc1F)C1CC1)[C@H]1CCCN1C(=O)c1cccc(-c2cn[nH]c2)c1 [Example 737, N-((R)-cyclopropyl(2-fluoro-4-(trifluoromethyl)phenyl)methyl)-1-(3-(1H-pyrazol-4-yl)benzoyl)-D-prolinamide]",7.053
5,"CC(C)(C)c1cc(C(=O)N2[C@@H](C(=O)N[C@@H](c3ccc(Cl)cc3F)C3COC3)C[C@H]3C[C@H]32)ccn1 [Example 738, (1R,3R,5R)-N-((R)-(4-chloro-2-fluorophenyl)(3-oxetanyl)methyl)-2-((2-(2-methyl-2-propanyl)-4-pyridinyl)carbonyl)-2-azabicyclo[3.1.0]hexane-3-carboxamide]",7.0545
6,"O=C(NCc1ccc(C(F)(F)F)cc1)[C@H]1CCCN1C(=O)[C@H]1CCCN(S(=O)(=O)N2CC(C3CCOC3)C2)C1 (stereo partly drawn) [Example 739, (2R)-1-((3S)-1-((3-(tetrahydrofuran-3-yl)azetidin-l-yl)sulfonyl)piperidine-3-carbonyl)-N-(4-(trifluoromethyl)benzyl)pyrrolidine-2-carboxamide]",7.1325
7,"CC(C)(C)[C@@H](NC(=O)[C@H]1CCCN1C(=O)[C@H]1CCCN(S(=O)(=O)N2CC(C#N)C2)C1)c1ccc(C(F)(F)F)cc1 [Example 740, 1-(((3S)-1-((3-cyano-1-azetidinyl)sulfonyl)-3-piperidinyl)carbonyl)-N-((1R)-2,2-dimethyl-1-(4-(trifluoromethyl)phenyl)propyl)-D-prolinamide]",7.156
8,"Cc1ccc(C(F)(F)F)c(CNC(=O)[C@H]2CCCN2C(=O)[C@H]2CCCN(S(=O)(=O)N3CC(C#N)C3)C2)c1 [Example 741, 1-(((3S)-1-((3-cyano-1-azetidinyl)sulfonyl)-3-piperidinyl)carbonyl)-N-(5-methyl-2-(trifluoromethyl)benzyl)-D-prolinamide]",7.1615
9,"CS(=O)(=O)c1cccc(C(=O)N2CCC[C@@H]2C(=O)N[C@@H]2CCc3cc(C(F)(F)F)ccc32)c1 [Example 742, 1-(3-(methylsulfonyl)benzoyl)-N-((1R)-5-(trifluoromethyl)-2,3-dihydro-1H-inden-1-yl)-D-prolinamide]",7.2
10,"O=C(NCc1ccc(C(F)(F)F)cc1)[C@H]1CCCN1C(=O)[C@H]1CCCN(S(=O)(=O)N2CC3(C2)CC(O)(C(F)(F)F)C3)C1 [Example 743, 1-(((3S)-1-((6-hydroxy-6-(trifluoromethyl)-2-azaspiro[3.3]hept-2-yl)sulfonyl)-3-piperidinyl)carbonyl)-N-(4-(trifluoromethyl)benzyl)-D-prolinamide]",7.2015
11,"CN(C)S(=O)(=O)N1CCC[C@H](C(=O)N2CCC[C@@H]2C(=O)NCc2ccc(C(F)(F)F)cc2)C1 [Example 744, 1-(((3S)-1-(dimethylsulfamoyl)-3-piperidinyl)carbonyl)-N-(4-(trifluoromethyl)benzyl)-D-prolinamide]",7.232
12,"O=C(N[C@@H](c1ccc(C(F)(F)F)cc1F)C1CC1)[C@H]1CCCN1C(=O)c1cccc(-c2cc[nH]n2)c1 [Example 745, N-((R)-cyclopropyl(2-fluoro-4-(trifluoromethyl)phenyl)methyl)-1-(3-(1H-pyrazol-3-yl)benzoyl)-D-prolinamide]",7.244
13,"N#CC1CN(S(=O)(=O)N2CCC[C@H](C(=O)N3CCC[C@@H]3C(=O)NCc3ccccc3C(F)(F)F)C2)C1 [Example 746, 1-(((3S)-1-((3-cyano-1-azetidinyl)sulfonyl)-3-piperidinyl)carbonyl)-N-(2-(trifluoromethyl)benzyl)-D-prolinamide]",7.268
14,"COc1cc(F)c([C@H](NC(=O)[C@H]2C[C@H]3C[C@H]3N2C(=O)c2cccc(S(C)(=O)=O)c2)C2CC2)cc1F [Example 747, (1R,3R,5R)-N-((R)-cyclopropyl(2,5-difluoro-4-methoxyphenyl)methyl)-2-(3-(methylsulfonyl)benzoyl)-2-azabicyclo[3.1.0]hexane-3-carboxamide]",7.287
15,"CC(C)c1cc(C(=O)N2[C@@H](C(=O)N[C@@H](c3ccc(C(F)(F)F)cc3F)C3COC3)C[C@H]3C[C@H]32)ccn1 [Example 748, (1R,3R,5R)-N-((R)-(2-fluoro-4-(trifluoromethyl)phenyl)(3-oxetanyl)methyl)-2-((2-(2-propanyl)-4-pyridinyl)carbonyl)-2-azabicyclo[3.1.0]hexane-3-carboxamide]",7.314
16,"C#CCN(C)S(=O)(=O)c1cccc(C(=O)N2CCC[C@@H]2C(=O)N[C@H](C)c2ccc(C(F)(F)F)cc2)c1 [Example 749, 1-(3-(methyl(2-propyn-1-yl)sulfamoyl)benzoyl)-N-((1R)-1-(4-(trifluoromethyl)phenyl)ethyl)-D-prolinamide]",7.3175
17,"CS(=O)(=O)c1cccc(C(=O)N2CC[C@@H]3C[C@]32C(=O)N[C@@H](c2ccc(C(F)(F)F)cc2F)C2CC2)c1 [Example 751, (1R,5R)-N-((R)-cyclopropyl(2-fluoro-4-(trifluoromethyl)phenyl)methyl)-2-(3-(methylsulfonyl)benzoyl)-2-azabicyclo[3.1.0]hexane-1-carboxamide]",7.3925
18,"CS(=N)(=O)c1cccc(C(=O)N2[C@@H](C(=O)N[C@@H](c3cc(F)c(Cl)cc3F)C3CC3)C[C@H]3C[C@H]32)c1 (stereo partly drawn) [Example 752, (1R,3R,5R)—N—((R)-(4-chloro-2,5-difluorophenyl)(cyclopropyl)methyl)-2-(3-(S-methylsulfonimidoyl)benzoyl)-2-azabicyclo[3.1.0]hexane-3-carboxamide]",7.417
19,"CS(=O)(=O)c1cccc(C(=O)N2[C@@H](C(=O)N[C@@H]3CCc4cc(Cl)ccc43)C[C@H]3C[C@H]32)c1 [Example 753, (1R,3R,5R)-N-((1R)-5-chloro-2,3-dihydro-1H-inden-1-yl)-2-(3-(methylsulfonyl)benzoyl)-2-azabicyclo[3.1.0]hexane-3-carboxamide]",7.42
20,"O=C(NC1CN(S(=O)(=O)N2CCC[C@H](C(=O)N3CCC[C@@H]3C(=O)NCc3ccc(C(F)(F)F)cc3)C2)C1)C1CCC1 [Example 754, 1-(((3S)-1-((3-((cyclobutylcarbonyl)amino)-1-azetidinyl)sulfonyl)-3-piperidinyl)carbonyl)-N-(4-(trifluoromethyl)benzyl)-D-prolinamide]",7.453
